Reference: patent US20250304559A1, “Ether-Linked Antiviral Compounds” (Pfizer Inc., priority 2021, published 2025)
Where two headings read alike, the source gives them in different places.

Columns and labels:
[1] = system: SARS-CoV-2 (USA_WA1/2020); experiment: Antiviral Activity from SARS-CoV-2 Infection (cytopathic effect, Cell Titer-Glo); assay type: cell-based; conditions: VeroE6 cells enriched for hACE2, MOI 0.002, 3-day incubation, tested alone or with P-gp inhibitor CP-100356 2 μM (table does not say which), read-out: Geometric Mean EC50
SARS-CoV-2 3CL protease = molecular target: T1, SARS-CoV-2 3CL protease (Severe acute respiratory syndrome coronavirus 2, UniProt P0DTD1); experiment: SARS-CoV-2 Coronavirus 3C Protease FRET Assay; assay type: biochemical; conditions: Examples 14-78 and 114 (second head of Table 2); Morrison equation fit, 15 nM enzyme, 25 μM peptide substrate; read-out: Geometric Mean Ki (nM) IC50
T1 construct: measures the activity of full-length SARS-CoV-2 3CL protease

| SMILES | EC50 ([1]; Severe acute respiratory syndrome coronavirus 2, Vero C1008, 72 h) [nM] | Ki (SARS-CoV-2 3CL protease) [nM] | EC50 [1] [nM] |
| --- | --- | --- | --- |
| COC(=O)N[C@H](C(=O)N1C[C@H]2[C@@H]([C@H]1C(=O)N[C@@H](C[C@@H]1CCNC1=O)C(=O)COc1ccccc1)C2(C)C)C(C)(C)C [Example 30, methyl{(2S)-1-[(1R,2S,5S)-6,6-dimethyl-2-({(2S)-3-oxo-1-[(3S)-2-oxopyrrolidin-3-yl]-4-phenoxybutan-2-yl}carbamoyl)-3-azabicyclo[3.1.0]hexan-3-yl]-3,3-dimethyl-1-oxobutan-2-yl}carbamate] | 27.2 | 2.15 | – |
| CC(C)[C@H](NS(C)(=O)=O)C(=O)N1CCC2(CC2)C[C@H]1C(=O)N[C@@H](C[C@@H]1CCNC1=O)C(=O)COc1ccc(F)cc1F (single isomer, unassigned) [Example 59, (5R*)-N-{(2S)-4-(2,4-difluorophenoxy)-3-oxo-1-[(3S)-2-oxopyrrolidin-3-yl]butan-2-yl}-6-[N-(methanesulfonyl)-L-valyl]-6-azaspiro[2.5]octane-5-carboxamide, DIAST-1] | – | 9.27 | 299 |
